Data reported in PubChem BioAssay AID1259407 (Chemical Carcinogenesis Research Information System (CCRIS), 2018).
The source made the active and inactive calls. The rule behind the calls is not given here.

Test system: CCRIS mutagenicity, Ames/micronucleus/aberration tests
Test: CCRIS mutagenicity studies
[1] = Test System: AMES SALMONELLA TYPHIMURIUM, Strain/Indicator: TA100, Metabolic Activation: NONE, Method: PREINCUBATION

Measured: mutagenic call

Clc1nc(Cl)nc(Nc2ccccc2Cl)n1
active: Test System: MOUSE LYMPHOMA, Strain/Indicator: L5178Y (TK+/TK-), Metabolic Activation: NONE, Method: SUSPENSION/PLATE active; positive | Test System: MOUSE LYMPHOMA, Strain/Indicator: L5178Y (TK+/TK-), Metabolic Activation: RAT, LIVER, S-9, AROCLOR 1254, Method: SUSPENSION/PLATE active; positive
inactive: Test System: AMES SALMONELLA TYPHIMURIUM, Strain/Indicator: TA97, Metabolic Activation: HAMSTER, LIVER, S-9, AROCLOR 1254 (10 OR 30%), Method: PREINCUBATION inactive; negative | Test System: AMES SALMONELLA TYPHIMURIUM, Strain/Indicator: TA97, Metabolic Activation: RAT, LIVER, S-9, AROCLOR 1254 (10 OR 30%), Method: PREINCUBATION inactive; negative | Test System: AMES SALMONELLA TYPHIMURIUM, Strain/Indicator: TA98, Metabolic Activation: HAMSTER, LIVER, S-9, AROCLOR 1254 (10%), Method: PREINCUBATION inactive; negative | Test System: AMES SALMONELLA TYPHIMURIUM, Strain/Indicator: TA98, Metabolic Activation: HAMSTER, LIVER, S-9, AROCLOR 1254 (30%), Method: PREINCUBATION inactive; negative | Test System: AMES SALMONELLA TYPHIMURIUM, Strain/Indicator: TA98, Metabolic Activation: RAT, LIVER, S-9, AROCLOR 1254 (10%), Method: PREINCUBATION inactive; negative | Test System: AMES SALMONELLA TYPHIMURIUM, Strain/Indicator: TA98, Metabolic Activation: RAT, LIVER, S-9, AROCLOR 1254 (30%), Method: PREINCUBATION inactive; negative | Test System: AMES SALMONELLA TYPHIMURIUM, Strain/Indicator: TA100, Metabolic Activation: HAMSTER, LIVER, S-9, AROCLOR 1254 (10%), Method: PREINCUBATION inactive; negative | Test System: AMES SALMONELLA TYPHIMURIUM, Strain/Indicator: TA100, Metabolic Activation: HAMSTER, LIVER, S-9, AROCLOR 1254 (30%), Method: PREINCUBATION inactive; negative | [1] inactive; negative | Test System: AMES SALMONELLA TYPHIMURIUM, Strain/Indicator: TA100, Metabolic Activation: RAT, LIVER, S-9, AROCLOR 1254 (10%), Method: PREINCUBATION inactive; negative | Test System: AMES SALMONELLA TYPHIMURIUM, Strain/Indicator: TA100, Metabolic Activation: RAT, LIVER, S-9, AROCLOR 1254 (30%), Method: PREINCUBATION inactive; negative | Test System: AMES SALMONELLA TYPHIMURIUM, Strain/Indicator: TA1535, Metabolic Activation: HAMSTER, LIVER, S-9, AROCLOR 1254 (10 OR 30%), Method: PREINCUBATION inactive; negative | Test System: AMES SALMONELLA TYPHIMURIUM, Strain/Indicator: TA1535, Metabolic Activation: RAT, LIVER, S-9, AROCLOR 1254 (10 OR 30%), Method: PREINCUBATION inactive; negative | Test System: AMES SALMONELLA TYPHIMURIUM, Strain/Indicator: TA1537, Metabolic Activation: HAMSTER, LIVER, S-9, AROCLOR 1254 (10 OR 30%), Method: PREINCUBATION inactive; negative | Test System: AMES SALMONELLA TYPHIMURIUM, Strain/Indicator: TA1537, Metabolic Activation: RAT, LIVER, S-9, AROCLOR 1254 (10 OR 30%), Method: PREINCUBATION inactive; negative | Test System: CHINESE HAMSTER OVARY, Strain/Indicator: CHO-K1-BH4 (HGPRT)/6-THIOGUANINE, Metabolic Activation: NONE inactive; negative | Test System: CHINESE HAMSTER OVARY, Strain/Indicator: CHO-K1-BH4 (HGPRT)/6-THIOGUANINE, Metabolic Activation: S-9 inactive; negative | Test System: E. COLI, Strain/Indicator: WP2 UVRA, Metabolic Activation: HAMSTER, LIVER, S-9, AROCLOR 1254, Method: STANDARD PLATE inactive; negative | Test System: E. COLI, Strain/Indicator: WP2 UVRA, Metabolic Activation: HAMSTER, LIVER, S-9, Method: STANDARD PLATE inactive; negative | Test System: E. COLI, Strain/Indicator: WP2 UVRA, Metabolic Activation: MOUSE, LIVER, S-9, AROCLOR 1254, Method: STANDARD PLATE inactive; negative | Test System: E. COLI, Strain/Indicator: WP2 UVRA, Metabolic Activation: MOUSE, LIVER, S-9, Method: STANDARD PLATE inactive; negative | Test System: E. COLI, Strain/Indicator: WP2 UVRA, Metabolic Activation: NONE, Method: STANDARD PLATE inactive; negative | Test System: E. COLI, Strain/Indicator: WP2 UVRA, Metabolic Activation: RAT, LIVER, S-9, AROCLOR 1254, Method: STANDARD PLATE inactive; negative | Test System: E. COLI, Strain/Indicator: WP2 UVRA, Metabolic Activation: RAT, LIVER, S-9, Method: STANDARD PLATE inactive; negative

O.O=C([O-])c1ccccn1.O=C([O-])c1ccccn1.O=C([O-])c1ccccn1.[Cr+3]
inactive: End Point: In vivo micronucleus, Test System: Peripheral blood normochromatic erythrocytes, Species: Mouse, Strain/Sex: B6C3F1/Female, Route: Oral inactive; negative | End Point: In vivo micronucleus, Test System: Peripheral blood normochromatic erythrocytes, Species: Mouse, Strain/Sex: B6C3F1/Male, Route: Oral inactive; negative | Test System: Ames Salmonella typhimurium, Strain/Indicator: TA98, Metabolic Activation: None, Method: Preincubation inactive; negative | Test System: Ames Salmonella typhimurium, Strain/Indicator: TA98, Metabolic Activation: Rat, Liver, S-9, Aroclor 1254 (10%), Method: Preincubation inactive; negative | Test System: Ames Salmonella typhimurium, Strain/Indicator: TA98, Metabolic Activation: Rat, Liver, S-9, Phenobarbital and 5,6-benzoflavone, Method: Preincubation inactive; negative | Test System: Ames Salmonella typhimurium, Strain/Indicator: TA100, Metabolic Activation: None, Method: Preincubation inactive; negative | Test System: Ames Salmonella typhimurium, Strain/Indicator: TA100, Metabolic Activation: Rat, Liver, S-9, Aroclor 1254 (10%), Method: Preincubation inactive; negative | Test System: Ames Salmonella typhimurium, Strain/Indicator: TA100, Metabolic Activation: Rat, Liver, S-9, Phenobarbital and 5,6-benzoflavone, Method: Preincubation inactive; negative | Test System: Ames Salmonella typhimurium, Strain/Indicator: TA1535, Metabolic Activation: None, Method: Preincubation inactive; negative | Test System: Ames Salmonella typhimurium, Strain/Indicator: TA1535, Metabolic Activation: Rat, Liver, S-9, Phenobarbital and 5,6-benzoflavone, Method: Preincubation inactive; negative | Test System: Ames Salmonella typhimurium, Strain/Indicator: TA1537, Metabolic Activation: None, Method: Preincubation inactive; negative | Test System: Ames Salmonella typhimurium, Strain/Indicator: TA1537, Metabolic Activation: Rat, Liver, S-9, Phenobarbital and 5,6-benzoflavone, Method: Preincubation inactive; negative | Test System: E. coli, Strain/Indicator: WP2 uvrA/pKM101, Metabolic Activation: None, Method: Preincubation inactive; negative | Test System: E. coli, Strain/Indicator: WP2uvrA/pKM101, Metabolic Activation: None, Method: Preincubation inactive; negative | Test System: E. coli, Strain/Indicator: WP2 uvrA/pKM101, Metabolic Activation: Rat, Liver, S-9, Aroclor 1254 (10%), Method: Preincubation inactive; negative | Test System: E. coli, Strain/Indicator: WP2uvrA/pKM101, Metabolic Activation: Rat, Liver, S-9, Phenobarbital and 5,6-benzoflavone, Method: Preincubation inactive; negative

Oc1ccc2cc3c4ccccc4c4ccccc4c3cc2c1
active: Test System: AMES SALMONELLA TYPHIMURIUM, Strain/Indicator: TA100, Metabolic Activation: RAT, LIVER, S-9, AROCLOR 1254, Method: PREINCUBATION active; positive

C=C[C@H]1CN2CC[C@H]1C[C@H]2[C@H](OC(=O)OCC)c1ccnc2ccc(OC)cc12
inactive: Test System: AMES SALMONELLA TYPHIMURIUM, Strain/Indicator: TA98, Metabolic Activation: NONE, Method: PREINCUBATION inactive; negative | Test System: AMES SALMONELLA TYPHIMURIUM, Strain/Indicator: TA98, Metabolic Activation: RAT, LIVER, S-9, Method: PREINCUBATION inactive; negative | [1] inactive; negative | Test System: AMES SALMONELLA TYPHIMURIUM, Strain/Indicator: TA100, Metabolic Activation: RAT, LIVER, S-9, Method: PREINCUBATION inactive; negative
